# According to ChEMBL document CHEMBL1130784, “Irreversible inhibition of zinc-containing protease by oxazolidinone derivatives. Novel inactivation chemistry” (Bioorg Med Chem Lett, 1998):
# Legend:
# [1] = Inhibitory activity of against carboxypeptidase A (CPA)
# [2] = Kinetic constant against carboxypeptidase A (CPA)
# [3] = Partition ratio (Kcat/Kinact) was calculated
# [4] = target: T1, Carboxypeptidase A1 (Homo sapiens) (UniProt P15085); experiment: Inactivation potency of compound against carboxypeptidase A (CPA)
# T1 sequence (whole entry): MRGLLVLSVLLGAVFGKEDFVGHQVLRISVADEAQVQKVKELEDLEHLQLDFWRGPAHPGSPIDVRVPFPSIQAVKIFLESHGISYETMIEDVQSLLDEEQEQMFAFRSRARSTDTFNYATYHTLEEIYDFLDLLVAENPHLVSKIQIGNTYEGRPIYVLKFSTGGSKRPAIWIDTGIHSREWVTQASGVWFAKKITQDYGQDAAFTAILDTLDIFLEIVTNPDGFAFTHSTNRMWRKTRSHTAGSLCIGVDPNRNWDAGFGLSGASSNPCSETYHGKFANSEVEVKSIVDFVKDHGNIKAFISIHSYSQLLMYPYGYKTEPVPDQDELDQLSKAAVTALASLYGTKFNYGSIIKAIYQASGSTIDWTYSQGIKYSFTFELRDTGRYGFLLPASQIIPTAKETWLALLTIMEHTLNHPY
structure (smiles),measurement,setting,value
O=C1N[C@H]([C@H](Cc2ccccc2)C(=O)O)CO1,Ki,[1],0.9 mM
same,K inact,[2],0.075 min⁻¹
same,Ratio,[3],120
same,K inact/Ki,[4],1.39 M⁻¹ s⁻¹
O=C1N[C@@H]([C@@H](Cc2ccccc2)C(=O)O)CO1,Ki,[1],1.65 mM
same,K inact,[2],0.115 min⁻¹
same,Ratio,[3],94
same,K inact/Ki,[4],1.52 M⁻¹ s⁻¹
